# Experimental data as given in patent US7354917B2, “Oxabispidine compounds and their use in the treatment of cardiac arrhythmias” (AstraZeneca AB, priority 2004, dated 2008).
# Structures can show the parent of a compound that is named as a salt.
# Target: T1, HERG channel (Homo sapiens, UniProt Q12809)
# T1 construct: expressed in transfected cells
# Assay: Test B: Rb+-efflux assay for detection of HERG channel blockers
# Assay type: cell-based
# Conditions: depolarisation-induced Rb+-efflux from Chinese hamster ovary cells stably expressing the HERG-channel; read-out: pIC50 for HERG channel blockade (converted)
# Procedure: Rb^+-Efflux Assay for Detection of HERG Channel Blockers
# The human ether-a-go-go related gene (HERG) encodes the voltage-gated K^+ channel underlying the cardiac rapid delayed rectifier current IKr. The IC50 value for HERG channel blockade was determined using a high throughput functional assay based on depolarisation-induced Rb^+-efflux from Chinese hamster ovary cells stably expressing the HERG-channel.
# Cells were grown in Ham F12 (Life Technologies 31765-027) supplemented with 10% FBS and 0.6 mg/mL hygromycin B and were routinely passaged twice-weekly. For experimental studies, cells were plated at a density of 15,000 cells/well in Falcon, 384-well tissue culture-treated black-walled clear-bottomed plates and were thereafter incubated overnight at 37° C. in a cell culture incubator.
# Following incubating overnight, cell plates were washed and a Rb^+-Load buffer (a physiological buffer containing Rb^+) was added. Cell plates were then incubated for 3 hours and were thereafter washed. Following this wash, the test compounds were added. The cell plates were then incubated for another 10 minutes and, following this incubation period, external K^+ concentration was increased in order to depolarize the cells and activate HERG channels. After a ten minute exposure period to the increased K^+ concentration, supernatants were transferred to new microplates for subsequent determination of Rb^+ content, using Atomic Absorption Spectrometry analysis.
# The basal Rb^+ efflux (content of Rb^+ (mg/L) in supernatants of wells receiving only wash buffer) was defined as 100% inhibition and the stimulated Rb^+efflux (content of Rb^+ (mg/L) in supernatants of wells exposed only to increased external potassium concentration) was defined as 0% inhibition.
# Compound activity was expressed as: […]
# A: Rb^+ content in wells receiving test compound+increased external K^+.
# C: Stimulated Rb^+ efflux.
# T1 sequence (Q12809 whole entry): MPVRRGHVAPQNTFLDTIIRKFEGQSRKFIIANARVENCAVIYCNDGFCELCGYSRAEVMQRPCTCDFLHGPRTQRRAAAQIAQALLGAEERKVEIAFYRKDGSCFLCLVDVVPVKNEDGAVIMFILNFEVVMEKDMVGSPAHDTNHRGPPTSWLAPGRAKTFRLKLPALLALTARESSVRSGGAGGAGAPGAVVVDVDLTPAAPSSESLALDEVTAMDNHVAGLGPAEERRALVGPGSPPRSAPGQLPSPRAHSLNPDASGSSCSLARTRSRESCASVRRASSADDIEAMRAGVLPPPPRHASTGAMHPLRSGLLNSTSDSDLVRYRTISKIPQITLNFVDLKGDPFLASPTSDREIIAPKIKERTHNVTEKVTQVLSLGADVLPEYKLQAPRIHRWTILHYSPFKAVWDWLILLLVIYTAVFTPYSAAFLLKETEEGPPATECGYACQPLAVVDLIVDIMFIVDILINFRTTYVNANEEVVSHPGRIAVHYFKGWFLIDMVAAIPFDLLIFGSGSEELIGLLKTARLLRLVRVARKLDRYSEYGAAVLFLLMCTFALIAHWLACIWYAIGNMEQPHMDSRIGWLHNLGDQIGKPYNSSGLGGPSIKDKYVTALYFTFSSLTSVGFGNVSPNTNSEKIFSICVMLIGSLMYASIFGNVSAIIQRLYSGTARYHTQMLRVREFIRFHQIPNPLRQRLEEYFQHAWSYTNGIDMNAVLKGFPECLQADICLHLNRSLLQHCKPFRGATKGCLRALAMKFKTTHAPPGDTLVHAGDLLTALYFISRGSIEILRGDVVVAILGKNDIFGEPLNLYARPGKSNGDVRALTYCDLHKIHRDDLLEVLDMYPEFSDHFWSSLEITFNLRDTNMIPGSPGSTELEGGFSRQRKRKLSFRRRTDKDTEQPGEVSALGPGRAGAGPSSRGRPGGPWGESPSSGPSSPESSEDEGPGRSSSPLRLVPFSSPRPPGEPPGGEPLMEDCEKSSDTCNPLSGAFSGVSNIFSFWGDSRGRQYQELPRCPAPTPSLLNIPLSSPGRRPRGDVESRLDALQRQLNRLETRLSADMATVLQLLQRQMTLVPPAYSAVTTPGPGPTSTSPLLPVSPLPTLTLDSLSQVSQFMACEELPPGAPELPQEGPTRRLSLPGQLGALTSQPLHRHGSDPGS
row,SMILES,IC50 [µM]
1,"CS(=O)(=O)N(CCOc1ccc(C#N)cc1)CCN1CC2CN(Cc3ccc(F)cc3)CC(C1)O2 [Example 3, N-[2-(4-Cyanophenoxy)ethyl]-N-{2-[7-(4-fluorobenzyl)-9-oxa-3,7-diaza-bicyclo[3.3.1]non-3-yl]ethyl}methanesulfonamide]",1.58
2,"CN(C)C(=O)N(CCOc1ccc(C#N)cc1)CCN1CC2CN(Cc3ccc(OC(F)F)cc3)CC(C1)O2 [9 (xlvi), N-[2-(4-cyanophenoxy)ethyl]-N-(2-{7-[4-(difluoromethoxy)-benzyl]-9-oxa-3,7-diazabicyclo[3.3.1]non-3-yl}ethyl)-N′,N′-dimethylurea]",4.17
3,"CS(=O)(=O)N(CCOc1ccc(C#N)cc1)CCN1CC2CN(Cc3ccccc3)CC(C1)O2 [Example 2, N-[2-(7-Benzyl-9-oxa-3,7-diazabicyclo[3.3.1]non-3-yl)ethyl]-N-[2-(4-cyanophenoxy)ethyl]methanesulfonamide, tartaric acid salt]",2.82
